In PubChem BioAssay (NCI):
Where “and” joins values, the source holds several entries; their conditions need not be identical. Equal values may be shown once.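 Tested at 5 concentrations; 48 h exposure; 96-well plates; endpoints linearly interpolated, else capped at highest concentration. GI50 is the concentration that inhibits growth by half. TGI is the concentration that stops growth completely.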

Legend:
Test in all cases: NCI tumour cell line growth inhibition, 48 h
HOP-92 NSCLC = test system: HOP-92 NSCLC
XF 498 CNS = test system: XF 498 CNS
A549 NSCLC = test system: A549 NSCLC
OVCAR-5 ovarian = test system: OVCAR-5 ovarian
CAKI-1 renal = test system: CAKI-1 renal
MDA-MB-435 = test system: MDA-MB-435
TK-10 renal = test system: TK-10 renal
LOX IMVI melanoma = test system: LOX IMVI melanoma
OVCAR-8 ovarian = test system: OVCAR-8 ovarian
HT29 colon = test system: HT29 colon
P388/ADR leukemia = test system: P388/ADR leukemia
KM12 colon = test system: KM12 colon
MDA-N = test system: MDA-N
MALME-3M melanoma = test system: MALME-3M melanoma
HS 578T breast = test system: HS 578T breast
SK-MEL-28 melanoma = test system: SK-MEL-28 melanoma
IGROV1 ovarian = test system: IGROV1 ovarian
SK-OV-3 ovarian = test system: SK-OV-3 ovarian
SN12K1 renal = test system: SN12K1 renal
P388 leukemia = test system: P388 leukemia
SR leukemia = test system: SR leukemia
SNB-78 CNS = test system: SNB-78 CNS
DU-145 prostate = test system: DU-145 prostate
MCF7 breast = test system: MCF7 breast
KM20L2 colon = test system: KM20L2 colon
UO-31 renal = test system: UO-31 renal
OVCAR-4 ovarian = test system: OVCAR-4 ovarian
PC-3 prostate = test system: PC-3 prostate
HCT-116 colon = test system: HCT-116 colon
T-47D breast = test system: T-47D breast
RPMI-8226 leukemia = test system: RPMI-8226 leukemia
EKVX NSCLC = test system: EKVX NSCLC
MDA-MB-231 breast = test system: MDA-MB-231 breast
NCI-H460 lung = test system: NCI-H460 lung
LXFL 529 NSCLC = test system: LXFL 529 NSCLC
A498 renal = test system: A498 renal
SW-620 colon = test system: SW-620 colon
HOP-18 NSCLC = test system: HOP-18 NSCLC
SK-MEL-5 melanoma = test system: SK-MEL-5 melanoma
HCT-15 colon = test system: HCT-15 colon
DMS 114 small cell lung = test system: DMS 114 small cell lung
BT-549 breast = test system: BT-549 breast
786-0 renal = test system: 786-0 renal
M19-MEL melanoma = test system: M19-MEL melanoma
DMS 273 small cell lung = test system: DMS 273 small cell lung
NCI/ADR-RES ovarian = test system: NCI/ADR-RES ovarian
SNB-19 CNS = test system: SNB-19 CNS

Compound: COc1cc([C@@H]2c3cc4c(cc3[C@@H](OC3OC5COC(C)OC5C(O)C3O)[C@H]3COC(=O)[C@H]23)OCO4)cc(OC)c1O (stereo partly drawn)
- TGI (HOP-92 NSCLC): 37.9 µM and 114 µM
- TGI (XF 498 CNS): 73.6 µM and 71.1 µM
- TGI (A549 NSCLC): 61.4 µM and 108 µM
- TGI (OVCAR-5 ovarian): 64.2 µM and 121 µM and 169 µM
- TGI (CAKI-1 renal): 31.4 µM and 77.1 µM and 49.2 µM
- TGI (MDA-MB-435): 19 µM and 50 µM
- TGI (TK-10 renal): > 84.4 µM and 48.8 µM and 32 µM
- TGI (LOX IMVI melanoma): > 81.1 µM and 11.6 µM and 42.9 µM
- TGI (OVCAR-8 ovarian): 117 µM and 500 µM and 156 µM
- TGI (HT29 colon): 79.8 µM and 500 µM and 125 µM
- TGI (P388/ADR leukemia): 411 µM
- TGI (KM12 colon): 27.1 µM and 23.9 µM and 92.2 µM
- GI50 (MDA-N): 18.6 µM
- TGI (MDA-N): 4.36 µM
- TGI (MALME-3M melanoma): 72 µM [middle of 4 runs]
- GI50 (HS 578T breast): 2.86 µM and 5.72 µM
- TGI (SK-MEL-28 melanoma): 125 µM and 363 µM and 198 µM
- TGI (IGROV1 ovarian): 67.8 µM and 159 µM and 157 µM
- TGI (SK-OV-3 ovarian): 62.3 µM and 500 µM and 120 µM
- TGI (SN12K1 renal): 66.6 µM
- TGI (P388 leukemia): 9.88 µM
- TGI (SR leukemia): 84.8 µM and 26.1 µM and 13.3 µM
- TGI (SNB-78 CNS): 154 µM and 604 µM
- GI50 (DU-145 prostate): 2.3 µM and 1.67 µM
- TGI (MCF7 breast): 103 µM and 500 µM and 432 µM
- TGI (KM20L2 colon): 133 µM and 225 µM
- TGI (UO-31 renal): 110 µM and 89.7 µM and 175 µM
- TGI (OVCAR-4 ovarian): 124 µM and 500 µM and 292 µM
- GI50 (PC-3 prostate): 12.9 µM and 7.68 µM
- TGI (HCT-116 colon): 25.8 µM and 90.4 µM and 130 µM
- GI50 (T-47D breast): 0.516 µM
- TGI (T-47D breast): 5.18 µM
- GI50 (RPMI-8226 leukemia): 14.8 µM and 2.41 µM
- TGI (RPMI-8226 leukemia): > 71.7 µM and 68 µM
- TGI (EKVX NSCLC): 149 µM and 500 µM and 183 µM
- GI50 (MDA-MB-231 breast): 7.49 µM and 5.82 µM
- TGI (MDA-MB-231 breast): > 35 µM and 34.4 µM and 8.11 µM
- TGI (NCI-H460 lung): 57 µM and 9.96 µM and 25.3 µM
- TGI (LXFL 529 NSCLC): 218 µM
- TGI (A498 renal): 59.9 µM and 12 µM and 55.4 µM
- TGI (SW-620 colon): 54.6 µM and 159 µM
- TGI (HOP-18 NSCLC): 121 µM and 232 µM
- TGI (SK-MEL-5 melanoma): 47.2 µM and 10.8 µM and 32.5 µM
- TGI (HCT-15 colon): 285 µM and 169 µM
- TGI (DMS 114 small cell lung): 24.6 µM and 66.8 µM
- GI50 (BT-549 breast): 1.83 µM
- TGI (BT-549 breast): 41.2 µM and 35 µM and 6.05 µM
- TGI (786-0 renal): 43.3 µM and 28.1 µM and 9.35 µM
- TGI (M19-MEL melanoma): 50.3 µM and 332 µM
- GI50 (DMS 273 small cell lung): 58.8 µM
- TGI (DMS 273 small cell lung): 32.9 µM
- TGI (NCI/ADR-RES ovarian): 178 µM and 500 µM and 650 µM
- TGI (SNB-19 CNS): 118 µM and 500 µM and 171 µM
